Patent US10035785B2, “Phosphoinositide 3-kinase inhibitors” (Karus Therapeutics Limited, priority 2012, dated 2018)

Columns and labels:
[1] = target: PI3K-p110δ (Homo sapiens, UniProt O00329); assay: Biochemical data, PI3K binding potency, PI3K-p110δ
From the text: (§1) The following biochemical data have been generated for the exemplified compounds, showing PI3K binding potency.

[2] = target: PI3K-p110α (Homo sapiens, UniProt P42336); assay: Biochemical data, PI3K binding potency, PI3K-p110α
From the text: as §1

[3] = target: PI3K-p110β (Homo sapiens, UniProt P42338); assay: Biochemical data, PI3K binding potency, PI3K-p110β
PI3K-p110β, sequence (P42338 whole entry): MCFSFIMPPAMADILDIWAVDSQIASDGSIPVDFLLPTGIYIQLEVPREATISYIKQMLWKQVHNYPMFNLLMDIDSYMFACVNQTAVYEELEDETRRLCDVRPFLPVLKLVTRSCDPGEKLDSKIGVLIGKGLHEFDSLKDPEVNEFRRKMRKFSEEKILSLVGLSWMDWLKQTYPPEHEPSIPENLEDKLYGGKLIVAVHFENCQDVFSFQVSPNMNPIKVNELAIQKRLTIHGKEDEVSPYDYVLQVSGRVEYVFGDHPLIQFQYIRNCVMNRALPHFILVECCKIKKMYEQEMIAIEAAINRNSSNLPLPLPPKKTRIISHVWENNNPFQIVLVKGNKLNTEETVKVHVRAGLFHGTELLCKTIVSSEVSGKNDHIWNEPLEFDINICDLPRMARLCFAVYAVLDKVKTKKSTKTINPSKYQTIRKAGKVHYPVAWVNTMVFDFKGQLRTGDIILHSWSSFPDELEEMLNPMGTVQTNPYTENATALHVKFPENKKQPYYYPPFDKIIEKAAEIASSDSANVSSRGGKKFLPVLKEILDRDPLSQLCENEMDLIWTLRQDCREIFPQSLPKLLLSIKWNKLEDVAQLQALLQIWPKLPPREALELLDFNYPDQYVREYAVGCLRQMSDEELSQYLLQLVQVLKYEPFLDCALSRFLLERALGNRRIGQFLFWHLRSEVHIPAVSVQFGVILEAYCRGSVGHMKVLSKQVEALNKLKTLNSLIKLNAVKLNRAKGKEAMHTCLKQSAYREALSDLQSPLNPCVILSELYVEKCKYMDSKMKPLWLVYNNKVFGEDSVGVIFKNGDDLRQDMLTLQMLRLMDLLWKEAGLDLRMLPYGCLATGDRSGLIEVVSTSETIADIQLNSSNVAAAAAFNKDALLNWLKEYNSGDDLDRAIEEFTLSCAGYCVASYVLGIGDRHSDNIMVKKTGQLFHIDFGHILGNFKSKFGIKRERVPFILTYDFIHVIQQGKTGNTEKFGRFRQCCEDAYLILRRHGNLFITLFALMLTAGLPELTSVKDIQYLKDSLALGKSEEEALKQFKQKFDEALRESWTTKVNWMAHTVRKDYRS
PI3K-p110β, sequence (P27986 whole entry partner): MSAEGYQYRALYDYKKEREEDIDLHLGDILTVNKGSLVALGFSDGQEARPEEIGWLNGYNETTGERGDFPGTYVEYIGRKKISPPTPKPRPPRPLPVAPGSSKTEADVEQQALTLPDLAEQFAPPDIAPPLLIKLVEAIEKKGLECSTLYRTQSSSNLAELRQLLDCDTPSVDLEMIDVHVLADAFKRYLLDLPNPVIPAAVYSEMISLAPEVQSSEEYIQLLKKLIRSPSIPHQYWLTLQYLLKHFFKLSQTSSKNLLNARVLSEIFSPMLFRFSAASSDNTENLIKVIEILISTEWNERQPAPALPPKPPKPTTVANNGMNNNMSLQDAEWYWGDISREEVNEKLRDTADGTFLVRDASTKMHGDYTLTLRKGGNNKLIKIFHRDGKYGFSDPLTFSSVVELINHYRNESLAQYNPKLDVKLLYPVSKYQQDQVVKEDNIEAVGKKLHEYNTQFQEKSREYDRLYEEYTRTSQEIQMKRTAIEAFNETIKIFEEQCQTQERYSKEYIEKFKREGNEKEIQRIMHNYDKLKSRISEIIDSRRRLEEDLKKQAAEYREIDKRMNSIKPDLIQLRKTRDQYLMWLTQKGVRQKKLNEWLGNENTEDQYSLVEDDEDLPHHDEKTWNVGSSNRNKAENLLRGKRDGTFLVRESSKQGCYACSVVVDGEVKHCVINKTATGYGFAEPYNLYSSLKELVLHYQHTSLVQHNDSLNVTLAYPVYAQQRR
From the text: as §1

[4] = target: PI3K-p110γ (Homo sapiens, UniProt P48736); assay: Biochemical data, PI3K binding potency, PI3K-p110γ
PI3K-p110γ, sequence (P48736 whole entry): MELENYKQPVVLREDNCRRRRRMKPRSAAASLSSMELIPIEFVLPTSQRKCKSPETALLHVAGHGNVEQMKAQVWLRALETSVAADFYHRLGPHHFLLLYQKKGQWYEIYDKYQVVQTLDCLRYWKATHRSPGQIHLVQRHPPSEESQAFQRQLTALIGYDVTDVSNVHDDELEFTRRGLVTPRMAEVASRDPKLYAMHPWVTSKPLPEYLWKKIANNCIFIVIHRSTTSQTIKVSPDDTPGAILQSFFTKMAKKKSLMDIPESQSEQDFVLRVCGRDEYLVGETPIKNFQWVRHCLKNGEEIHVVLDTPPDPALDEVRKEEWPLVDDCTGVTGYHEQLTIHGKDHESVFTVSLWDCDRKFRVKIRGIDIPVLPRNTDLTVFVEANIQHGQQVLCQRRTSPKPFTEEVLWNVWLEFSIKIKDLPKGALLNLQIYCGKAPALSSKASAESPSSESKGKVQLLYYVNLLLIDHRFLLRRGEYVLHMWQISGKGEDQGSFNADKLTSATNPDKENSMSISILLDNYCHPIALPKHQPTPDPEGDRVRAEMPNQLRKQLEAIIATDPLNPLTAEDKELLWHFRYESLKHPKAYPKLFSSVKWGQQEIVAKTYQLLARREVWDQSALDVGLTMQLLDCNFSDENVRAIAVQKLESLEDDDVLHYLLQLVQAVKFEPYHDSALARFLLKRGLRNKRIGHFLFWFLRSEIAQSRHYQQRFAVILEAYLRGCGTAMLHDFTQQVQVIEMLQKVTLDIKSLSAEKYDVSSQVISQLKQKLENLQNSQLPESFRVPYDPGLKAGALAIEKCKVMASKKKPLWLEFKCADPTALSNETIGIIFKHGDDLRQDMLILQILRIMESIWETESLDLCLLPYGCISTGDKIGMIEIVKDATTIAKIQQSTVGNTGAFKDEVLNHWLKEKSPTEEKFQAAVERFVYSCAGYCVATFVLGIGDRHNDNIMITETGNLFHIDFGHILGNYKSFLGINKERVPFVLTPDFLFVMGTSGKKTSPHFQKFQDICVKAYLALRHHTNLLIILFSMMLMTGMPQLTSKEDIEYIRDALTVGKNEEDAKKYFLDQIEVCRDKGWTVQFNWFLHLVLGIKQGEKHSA
From the text: as §1

PI3K-p110δ, sequence (O00329 whole entry): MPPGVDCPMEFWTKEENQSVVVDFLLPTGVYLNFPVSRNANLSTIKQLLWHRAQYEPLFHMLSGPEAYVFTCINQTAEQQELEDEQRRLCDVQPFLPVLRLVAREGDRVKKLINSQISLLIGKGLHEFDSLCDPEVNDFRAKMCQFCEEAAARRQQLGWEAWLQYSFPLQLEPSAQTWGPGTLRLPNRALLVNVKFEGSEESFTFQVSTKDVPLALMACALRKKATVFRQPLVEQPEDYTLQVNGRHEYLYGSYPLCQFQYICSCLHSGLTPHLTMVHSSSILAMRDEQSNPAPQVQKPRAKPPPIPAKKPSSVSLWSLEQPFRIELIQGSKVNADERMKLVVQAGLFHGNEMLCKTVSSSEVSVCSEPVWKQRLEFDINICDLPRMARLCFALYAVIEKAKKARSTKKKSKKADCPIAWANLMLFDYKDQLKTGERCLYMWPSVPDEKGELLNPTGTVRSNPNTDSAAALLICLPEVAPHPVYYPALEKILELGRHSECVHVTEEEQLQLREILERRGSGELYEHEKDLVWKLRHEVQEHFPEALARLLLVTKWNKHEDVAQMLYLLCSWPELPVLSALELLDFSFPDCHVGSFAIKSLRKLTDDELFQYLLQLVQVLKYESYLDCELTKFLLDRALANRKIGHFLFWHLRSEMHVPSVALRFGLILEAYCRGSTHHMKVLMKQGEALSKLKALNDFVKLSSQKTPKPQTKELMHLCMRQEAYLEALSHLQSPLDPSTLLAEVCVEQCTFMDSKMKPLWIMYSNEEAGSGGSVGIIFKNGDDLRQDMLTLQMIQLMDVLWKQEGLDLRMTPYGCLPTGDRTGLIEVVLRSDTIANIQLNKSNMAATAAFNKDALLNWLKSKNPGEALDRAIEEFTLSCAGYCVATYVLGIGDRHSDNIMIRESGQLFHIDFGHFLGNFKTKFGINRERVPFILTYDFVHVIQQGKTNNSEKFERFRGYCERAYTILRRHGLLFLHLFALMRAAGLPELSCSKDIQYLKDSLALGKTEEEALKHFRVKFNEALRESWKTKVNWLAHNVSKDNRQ
PI3K-p110δ, sequence (P27986 whole entry partner): as the sequence (P27986 whole entry partner) above
PI3K-p110α, sequence (P42336 whole entry): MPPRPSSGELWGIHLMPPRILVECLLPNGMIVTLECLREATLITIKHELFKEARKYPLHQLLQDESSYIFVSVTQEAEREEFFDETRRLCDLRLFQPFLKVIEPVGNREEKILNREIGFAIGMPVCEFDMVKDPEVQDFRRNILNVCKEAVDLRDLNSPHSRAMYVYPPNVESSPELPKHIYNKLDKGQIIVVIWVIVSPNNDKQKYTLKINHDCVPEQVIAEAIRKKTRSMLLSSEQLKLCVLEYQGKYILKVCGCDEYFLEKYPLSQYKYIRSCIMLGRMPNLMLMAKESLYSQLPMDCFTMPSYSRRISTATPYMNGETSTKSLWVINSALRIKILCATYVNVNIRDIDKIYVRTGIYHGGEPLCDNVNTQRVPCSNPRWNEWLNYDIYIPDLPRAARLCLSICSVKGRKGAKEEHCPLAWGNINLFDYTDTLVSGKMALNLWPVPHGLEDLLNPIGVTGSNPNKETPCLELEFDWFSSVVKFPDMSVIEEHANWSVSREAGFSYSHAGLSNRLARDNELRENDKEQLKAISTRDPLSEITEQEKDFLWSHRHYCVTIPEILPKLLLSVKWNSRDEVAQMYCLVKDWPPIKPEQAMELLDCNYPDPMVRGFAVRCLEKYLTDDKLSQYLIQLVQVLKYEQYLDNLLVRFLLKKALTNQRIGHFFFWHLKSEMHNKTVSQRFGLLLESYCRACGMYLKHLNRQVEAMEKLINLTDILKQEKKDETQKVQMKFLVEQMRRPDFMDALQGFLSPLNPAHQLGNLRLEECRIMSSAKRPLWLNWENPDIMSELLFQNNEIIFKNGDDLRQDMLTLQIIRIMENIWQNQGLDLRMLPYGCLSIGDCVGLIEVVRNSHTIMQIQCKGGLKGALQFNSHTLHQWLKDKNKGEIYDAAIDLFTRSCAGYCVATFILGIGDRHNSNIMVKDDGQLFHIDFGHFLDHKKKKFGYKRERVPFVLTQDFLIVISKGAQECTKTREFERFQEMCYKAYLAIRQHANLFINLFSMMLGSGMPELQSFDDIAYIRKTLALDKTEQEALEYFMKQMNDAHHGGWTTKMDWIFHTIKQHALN
PI3K-p110α, sequence (P27986 whole entry partner): as the sequence (P27986 whole entry partner) above

IC50 [1] [nM] | IC50 [2] [nM] | IC50 [3] [nM] | IC50 [4] [nM] | SMILES
177 | ≥ 10000 | 247 | ≥ 10000 | CN(C)CCCC(=O)Nc1cc(-c2cccc3[nH]ccc23)nc(N2CCOCC2)c1 [B, 4-Dimethylamino-N-[2-(1H-indol-4-yl)-6-morpholin-4-yl-pyridin-4-yl]-butyramide]
953 | – | – | – | O=C(CCCN1CCCC1)Nc1cc(-c2cccc3[nH]ccc23)nc(N2CCOCC2)c1 [C, N-[2-(1H-Indol-4-yl)-6-morpholin-4-yl-pyridin-4-yl]-4-pyrrolidin-1-yl-butyramide]
